Experimental data from paper PMC9897788, “Design, synthesis and cytotoxic evaluation of novel bis-thiazole derivatives as preferential Pim1 kinase inhibitors with in vivo and in silico study” (Journal of Enzyme Inhibition and Medicinal Chemistry, 2023).

Experiments:
Assay in all cases: NCI 60 cell one-dose screening (SRB)
Assay type in all cases: cell-based
[1] = system: SF-295; settings: Homo sapiens; SF-295, CNS Cancer; single dose 10 µM, 48 h; read-out: Percentage of cellular growth inhibition
Method in brief: (§1)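 Inhibition percentages derive from SRB-stained cell mass: growth relative to no-drug wells, computed as (Ti−Tz)/(C−Tz)×100, or (Ti−Tz)/Tz×100 when Ti<Tz, then subtracted from 100. Compound level was 10 µM for 48 h in RPMI 1640 medium with 5% serum.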

[2] = system: U251; settings: Homo sapiens, U-251; U251, CNS Cancer; single dose 10 µM, 48 h; read-out: Percentage of cellular growth inhibition
Method in brief: as §1

[3] = system: NCI-H522; settings: Homo sapiens; NCI-H522, Non-Small Cell Lung Cancer; single dose 10 µM, 48 h; read-out: Percentage of cellular growth inhibition
Method in brief: as §1

[4] = system: HT29; settings: Homo sapiens, HT-29; HT29, Colon Cancer; single dose 10 µM, 48 h; read-out: Percentage of cellular growth inhibition
Method in brief: as §1

[5] = system: SN12C; settings: Homo sapiens, Renal Cancer, single dose 10 µM, 48 h, read-out: Percentage of cellular growth inhibition
Method in brief: as §1

[6] = system: TK-10; settings: Homo sapiens; TK-10, Renal Cancer; single dose 10 µM, 48 h; read-out: Percentage of cellular growth inhibition
Method in brief: as §1

[7] = system: DU-145; settings: Homo sapiens; DU-145, Prostate Cancer; single dose 10 µM, 48 h; read-out: Percentage of cellular growth inhibition
Method in brief: as §1

[8] = system: HCC-2998; settings: Homo sapiens; HCC-2998, Colon Cancer; single dose 10 µM, 48 h; read-out: Percentage of cellular growth inhibition
Method in brief: as §1

[9] = system: HOP-92; settings: Homo sapiens, HOP-92, 48 h, HOP-92, Non-Small Cell Lung Cancer, single dose 10 µM, read-out: Percentage of cellular growth inhibition
Method in brief: as §1

[10] = system: A498; settings: Homo sapiens; A498, Renal Cancer; single dose 10 µM, 48 h; read-out: Percentage of cellular growth inhibition
Method in brief: as §1

[11] = system: SW-620; settings: Homo sapiens; SW-620, Colon Cancer; single dose 10 µM, 48 h; read-out: Percentage of cellular growth inhibition
Method in brief: as §1

[12] = system: IGROV1; settings: Homo sapiens, IGROV-1; IGROV1, Ovarian Cancer; single dose 10 µM, 48 h; read-out: Percentage of cellular growth inhibition
Method in brief: as §1

[13] = system: HCT-15; settings: Homo sapiens; HCT-15, Colon Cancer; single dose 10 µM, 48 h; read-out: Percentage of cellular growth inhibition
Method in brief: as §1

[14] = system: BT-549; settings: Homo sapiens; BT-549, Breast Cancer; single dose 10 µM, 48 h; read-out: Percentage of cellular growth inhibition
Method in brief: as §1

[15] = system: MDA-MB-231/ATCC; settings: Homo sapiens, Breast Cancer, single dose 10 µM, 48 h, read-out: Percentage of cellular growth inhibition
Method in brief: as §1

[16] = system: NCI-H460; settings: Homo sapiens; NCI-H460, Non-Small Cell Lung Cancer; single dose 10 µM, 48 h; read-out: Percentage of cellular growth inhibition
Method in brief: as §1

[17] = system: HL-60(TB); settings: Homo sapiens, Leukemia, single dose 10 µM, 48 h, read-out: Percentage of cellular growth inhibition
Method in brief: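 Single dose 10 µM, 48 h exposure; RPMI 1640/5% FBS/2 mM Gln, 37 °C. TCA fix (10% adherent, 16% suspension), 0.4% SRB, A515. Value = 100 − growth % relative to untreated control.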

[18] = system: SK-MEL-28; settings: Homo sapiens; SK-MEL-28, Melanoma; single dose 10 µM, 48 h; read-out: Percentage of cellular growth inhibition
Method in brief: as §1

[19] = system: A549/ATCC; settings: Homo sapiens, Non-Small Cell Lung Cancer, single dose 10 µM, 48 h, read-out: Percentage of cellular growth inhibition
Method in brief: as §1

[20] = system: EKVX; settings: Homo sapiens, Non-Small Cell Lung Cancer, single dose 10 µM, 48 h, read-out: Percentage of cellular growth inhibition
Method in brief: as §1

[21] = system: NCI-H226; settings: Homo sapiens; NCI-H226, Non-Small Cell Lung Cancer; single dose 10 µM, 48 h; read-out: Percentage of cellular growth inhibition
Method in brief: as §1

| SMILES | inhibition at 10 µM [1] [%] | inhibition at 10 µM [2] [%] | inhibition at 10 µM [3] [%] | inhibition at 10 µM [4] [%] | inhibition at 10 µM [5] [%] | inhibition at 10 µM [6] [%] | inhibition at 10 µM [7] [%] | inhibition at 10 µM [8] [%] | inhibition at 10 µM [9] [%] | inhibition at 10 µM [10] [%] | inhibition at 10 µM [11] [%] | inhibition at 10 µM [12] [%] | inhibition at 10 µM [13] [%] | inhibition at 10 µM [14] [%] | inhibition at 10 µM [15] [%] | inhibition at 10 µM [16] [%] | inhibition at 10 µM [17] [%] | inhibition at 10 µM [18] [%] | inhibition at 10 µM [19] [%] | inhibition at 10 µM [20] [%] | other results |
| --- | --- | --- | --- | --- | --- | --- | --- | --- | --- | --- | --- | --- | --- | --- | --- | --- | --- | --- | --- | --- | --- |
| Clc1ccc(-c2csc(Nc3cccc(Nc4nc(-c5ccc(Cl)cc5)cs4)c3)n2)cc1 [6c, N^1,N^3-bis(4–(4-chlorophenyl)thiazol-2-yl)benzene-1,3-diamine] | 4 | 2.2 | 13.2 | -10.5 | 1 | 1.4 | -1.8 | -10.9 | 59.5 | 9.8 | 0.4 | 9 | 7.1 | -6.1 | 24.9 | -2.1 | 14.6 | -4.2 | 6.7 | 12.4 | inhibition at 10 µM [21]: 27.2% |
| Fc1ccc(-c2csc(Nc3cccc(Nc4nc(-c5ccc(F)cc5)cs4)c3)n2)cc1 [6b, N^1,N^3-bis(4–(4-fluorophenyl)thiazol-2-yl)benzene-1,3-diamine] | 9.6 | 37.3 | 93.8 | 37.7 | 52.8 | 5.5 | 32.3 | 64.8 | 60.8 | 21.7 | 29.7 | 58.2 | 47.5 | 36 | 35.4 | 59.6 | 25.7 | 23.6 | 37.2 | 60.2 | inhibition at 10 µM [21]: 48.5% |
| Cc1nc(Nc2cccc(Nc3nc(C)c(N=Nc4ccccc4)s3)c2)sc1N=Nc1ccccc1 [5a, N^1,N^3-bis(4-methyl-5-(phenyldiazenyl)thiazol-2-yl)benzene-1,3-diamine] | 13.6 | 30.1 | 30.7 | 2 | 53.9 | 2.9 | 16.6 | -0.4 | -4 | 1.2 | 9.4 | 52.2 | 21 | 5.8 | 35.1 | 3.2 | 5.5 | 2.5 | 36.4 | 16.9 | inhibition at 10 µM [21]: 33% |
| CC(=O)c1sc(Nc2cccc(Nc3nc(C)c(C(C)=O)s3)c2)nc1C [3b, 1,1’-(2,2’-(1,3-Phenylenebis(azanediyl))bis(4-methylthiazole-5,2-diyl))diethanone] | 13.5 | 34.3 | 53.8 | 30 | 45 | 46.4 | 54.6 | 19.9 | 36.4 | 72.3 | 37.5 | 73.6 | 55.1 | 53.8 | 19.3 | 54.4 | 65.8 | 28.5 | 34.2 | 31.2 | inhibition at 10 µM [21]: 34.6% |
| NC(=S)Nc1cccc(NC(N)=S)c1 [compound 2, 1,1′-(1,3-phenylene)bis(thiourea)] | 9.8 | 11.2 | 2.8 | -13.3 | 18.1 | -7.3 | -1.2 | -16.9 | -4.5 | -1.2 | -6.9 | 2.5 | 4.9 | -14.6 | 10.3 | -9.7 | 0.9 | -3.8 | 6.1 | -1.3 | inhibition at 10 µM [21]: 1.9% |
| Cc1csc(Nc2cccc(Nc3nc(C)cs3)c2)n1 [3a, N^1,N^3-bis(4-methylthiazol-2-yl)benzene-1,3-diamine] | 9.5 | 3.5 | 39.3 | -6.8 | 13.8 | -35 | 10.2 | -4.2 | 41.2 | 51.2 | -3.6 | 7.9 | 7.3 | -24.4 | 21.2 | 1.6 | 18.2 | 10.4 | -3.9 | 14.7 | inhibition at 10 µM [21]: 24.2% |
| Clc1ccc(-c2cs/c(=N\c3ccccc3)n2-c2cccc(-n3c(-c4ccc(Cl)cc4)cs/c3=N\c3ccccc3)c2)cc1 [8c, N,N’-(3,3’-(1,3-phenylene)bis(4–(4-chlorophenyl)thiazole-3(3H)-yl-2(3H)-ylidene))dianiline] | -17.9 | 11.1 | 42.2 | 12.4 | 2.3 | -14.1 | 19.2 | -1.7 | 2.4 | -16.3 | 36.7 | -0.4 | -1.3 | -15.5 | -4.5 | 0.1 | 41.8 | -1 | 27.7 | 4.9 | inhibition at 10 µM [21]: 16.9% |
| Fc1ccc(-c2cs/c(=N\c3ccccc3)n2-c2cccc(-n3c(-c4ccc(F)cc4)cs/c3=N\c3ccccc3)c2)cc1 [8b, N,N’-(3,3’-(1,3-phenylene)bis(4–(4-fluorophenyl)thiazole-3(3H)-yl-2(3H)-ylidene))dianiline] | -18.8 | 28.1 | 41.6 | 9.9 | 7.5 | -16.6 | 17.1 | 12.1 | 22 | -6.4 | 45.1 | 12.9 | 21.7 | -4.1 | 8.9 | 37.5 | 15.8 | 1.7 | 19.8 | 19.5 | inhibition at 10 µM [21]: 23.5% |
